Assay results from patent US20100143428A1, “A STABLE GLUTARALDEHYDE COMPLEX” (priority 2006, published 2010).

Test system: bacteria
Assay: Residual efficacy on bacterially contaminated surfaces, duration of effect
Format: cell-based
Details: "as is"
Procedure: Table 1 tabulates results of a residual efficacy test done on the product of the invention (sample number RT14) by the South African Bureau of Standards (SABS) using the European surface test method (1993), to determine the residual efficacy of the sample on bacterially contaminated surfaces.
The surfaces of stainless steel discs (2 cm^2) were seeded with a 0.1 ml bacterial suspension containing 10^7 bacterial cells/ml and thereafter dried at 37° C. for one hour. The 0.1 ml RT14 sample was dropped onto the dried disc, ensuring that the disc was totally covered. After 24 hours, 48 hours, 7 days, 14 days and 30 days respectively, the surfaces were again seeded with a bacterial suspension. After a minute contact time, the stainless steel discs were placed in conical flasks containing 10m1 of a neutralization medium to neutralize the RT14 and the flasks were shaken to dislodge the cells from the discs. Tenfold dilutions of the flask contents were placed onto sterile petri dishes. Nutrient agar was poured onto the petri dishes, mixed with contents, and incubated at 37° C. for 2 days. Colony-forming bacterial cells were counted. Untreated stainless steel discs were used as controls.

## O=CCCCC=O [glutaraldehyde]
  duration of effectiveness on bacteria: up to 10 hours
